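Five compound concentrations were applied to cells in 96-well plates for 48 hours; endpoints were derived by simple linear interpolation of the resulting dose-response curve. GI50: concentration for 50% inhibition of growth. Definition used: TGI = concentration required for complete inhibition of growth.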

30 compounds from PubChem BioAssay (NCI) can be followed below.

Assay in all cases: inhibition of tumour cell growth, NCI panel, 48 h
The test system of test [1] is ACHN renal.
The test system of test [2] is HOP-62 NSCLC.
The subject of test [3] is HT29 colon.
The subject of test [4] is KM12 colon.
The subject of test [5] is MDA-MB-435.
Test [6] has as its system PC-3 prostate.
The test system of test [7] is RPMI-8226 leukemia.
The test system of test [8] is T-47D breast.
Test [9] concerns U251 CNS.
Test [10] has as its system OVCAR-8 ovarian.

Turning to `COC(OC)[C@@H]1OC[C@@H](O)[C@@H]1n1cnc2c(N)ncnc21`, the TGI in test [1], in test [2], in test [3], in test [4], in test [5] and in test [6] was > 100 µM each time. Moreover, the TGI in test [7], in [8] and in test [9] was > 100 µM in each case.
`Cc1cc(=O)[nH]c(NN2C(Cl)C(=O)C2c2cccc(Cl)c2)n1` (stereo not drawn): the TGI was > 100 µM in test [1]; > 100 µM in test [2]; 76.8 µM in [3]; 67 µM in test [4]; > 100 µM in test [10]; 34.8 µM in [7]. The TGI in test [9] was > 100 µM.
As to `CC(=O)N1CCn2c1nc1cc(Cl)ccc12`, the TGI in test [1] was > 100 µM; in [2], 40 µM; in test [3], > 100 µM; in test [4], > 100 µM; in test [5] it was > 100 µM; in [10] it was > 100 µM. The TGI in test [6] is > 100 µM; in test [8], 51.4 µM; in [9], > 100 µM.
For the compound `COc1ccc2c(OCc3nnc4ccc(-c5ccccc5)nn34)ccnc2c1`, the GI50 in test [3], in [4], in test [5], in [6] and in test [7] was > 100 µM in each case. Further, the TGI in test [3], in test [4], in test [5], in test [6] and in [7] was > 100 µM each time.
As to `CC(C)C1N(C)c2ccc(Cl)cc2[C@H]2c3ccccc3CCN12` (stereo partly drawn), the TGI in test [1] is > 100 µM; in test [2], > 100 µM; in test [3], 90.7 µM; in test [4], > 100 µM; in test [5], 61.6 µM; in test [10], > 100 µM. Besides, the TGI in test [6] is > 100 µM; in [7], 79.8 µM; in [9] it was > 100 µM.
As to `NNC(=O)c1cc(=O)[nH][nH]1`, the TGI in test [1], in [3], in test [4], in test [5], in test [10] and in [6] was > 100 µM throughout. For the same compound, the TGI in test [7], in [8] and in [9] was > 100 µM in each case.
Take `CC1=NC(=Cc2ccc([N+](=O)[O-])cc2)C(=O)N1n1c(-c2ccccc2)nc2ccccc2c1=O`: the TGI in test [2], in test [3], in test [4], in test [5], in test [10] and in [6] was > 100 µM each time. In addition, the figures for the TGI in [7] and in [8] were 53.6 µM and > 100 µM, respectively.
With `Cc1nc2ccccc2c(/C=C/c2ccc(Cl)cc2)c1C(=O)/C=C/c1ccc(Cl)cc1`, the results for the GI50 in test [3], in test [7] and in test [9] were 0.739 µM, 1.2 µM and 1.39 µM, respectively. Moreover, the TGI in [3] was > 100 µM; in [7] it was 6.34 µM; in test [9], 3.03 µM.
For `CCOc1cc(NC(C)=O)ccc1C(=O)NN1C(=O)CSC1c1ccccc1` (stereo not drawn), the TGI in test [1], in [2], in test [3], in test [4], in test [5] and in test [10] was > 100 µM in each case. Also, the TGI in test [6], in test [7] and in test [8] was > 100 µM throughout.
For `N#C/C(=C/NC(=S)c1ccncc1)C(N)=O`, the TGI in test [1], in test [2], in [3], in test [4], in [5] and in test [10] was > 100 µM each time. Moreover, the TGI in test [8] and in test [9] was > 100 µM each time.
On to `O=C1Nc2ccccc2Nc2ccncc21`, for which the TGI in test [2], in test [3], in [4], in [10], in test [7] and in test [9] was > 100 µM throughout.
`C=CCOCn1cc(C)c(=O)[nH]c1=O`: the TGI in [1], in [2], in test [3], in test [4], in [5] and in [10] was > 100 µM throughout. The TGI in test [6], in test [7] and in [8] was > 100 µM in each case.
Turning to `CC(=O)[CH-]C(=O)c1ccccc1.CC(=O)[CH-]C(=O)c1ccccc1.C[C@]12CCC(=O)C=C1CC[C@@H]1C2CC[C@@]2(C)C1CC[C@]2(C)[O-].C[C@]12CCC(=O)C=C1CC[C@@H]1C2CC[C@@]2(C)C1CC[C@]2(C)[O-].Cl.[Ti+4]` (stereo partly drawn), the GI50 was 21.6 µM in test [1]; 24.1 µM in [2]; 16.3 µM in [3]; 13.5 µM in test [4]; 20.4 µM in test [10]; 15.4 µM in [7]. The GI50 in [9] is 15.2 µM. Moreover, the TGI is 87.8 µM in [1]; 62.7 µM in test [2]; 76 µM in [3]; 71.3 µM in test [4]; 77.5 µM in test [10]; > 100 µM in test [7]. In [9], this compound displayed a TGI of 54.2 µM.
`COc1ccc(/C=C/C2=NN(c3cccc(S(=O)(=O)O)c3)C3(C2)SCC(=O)N3c2nc3ccccc3s2)cc1` (stereo not drawn): the TGI in [1], in test [3], in test [4], in test [5], in [10] and in test [6] was > 100 µM in each case. The figures for the TGI in [7], in test [8] and in [9] were 84.5 µM, 87.1 µM and > 100 µM, respectively.
On to `COc1cc(-c2ccccc2N)c2cccnc2c1OC`, for which the TGI in test [1] stood at 15.2 µM; in test [2], 19 µM; in test [3], 16.3 µM; in test [4], 24.3 µM; in test [5], 21.1 µM; in test [6] it was 22 µM. Also, the figures for the TGI in test [7], in test [8] and in test [9] were 14.8 µM, 13.7 µM and 17.7 µM, respectively.
On to `CCN(CC)c1ccc2cc(C(=O)Nc3ccccn3)c(=N)oc2c1`, for which the TGI in test [1] is > 100 µM; in test [2] it was 52.1 µM; in [3] it was > 100 µM; in [4], > 100 µM; in [5], > 100 µM; in [10], > 100 µM. In addition, the TGI in test [7], in [8] and in [9] was > 100 µM throughout.
As to `O=C(NC(=S)NC(=O)c1cc(O)c(O)c(O)c1)c1cc(O)c(O)c(O)c1`, the TGI in test [1] was determined as 44.9 µM; in test [3], 65.5 µM; in [4], 70.5 µM; in [5] it was 24.7 µM; in test [10], 44.5 µM; in test [6], 39.8 µM. The figures for the TGI in [7] and in test [9] were > 100 µM and 84.9 µM, respectively.
For `COc1ccc(C(C2=C(O)COC2=O)c2cc3c(cc2O)OCO3)cc1OC` (stereo not drawn), the TGI in test [1], in test [2], in [3], in test [4], in test [5] and in test [10] was > 100 µM in each case. Besides, the TGI in test [6] and in [7] was > 100 µM each time.
Turning to `Cc1ccccc1NC(=O)Cc1csc2[n+]1C(=O)/C(=C/c1ccc([N+](=O)[O-])cc1)S2`, the TGI in test [1], in [2], in [3], in test [4], in test [5] and in [10] was > 100 µM each time. Also, the TGI in test [6], in test [8] and in test [9] was > 100 µM in each case.
Regarding `O=C(CCc1ccccc1)ON1C(=S)C(c2ccccc2)(c2ccccc2)N=C1Sc1ccccc1`, the TGI in test [1], in test [2], in test [3], in test [4], in test [10] and in [6] was > 100 µM in each case. The TGI in test [7] is 74.6 µM; in test [8] it was > 100 µM.
With `Oc1[nH]c2ccccc2c1/C=c1/cc2c(c(-c3ccc(F)cc3)n1)=Nc1ccccc1-2`, the GI50 in test [1] was 1.12 µM; in [3], 0.384 µM; in test [4], 0.363 µM; in [6], 0.317 µM; in [7] it was 0.406 µM; in [8], 0.501 µM. Also, in test [9], the GI50 was 0.94 µM. Further, the TGI in [1] came out at 2.54 µM; in test [3], 1.43 µM; in test [4], 1.87 µM; in test [6], 1.88 µM; in test [7] it was 2.03 µM; in test [8], 2.13 µM. The compound also came in with a TGI in test [9] of 2.17 µM.
As for `CCCC(CCN)(CCN)[N+](=O)[O-]`, the TGI in test [1], in test [3], in test [4], in [5], in test [10] and in test [6] was > 100 µM in each case. Moreover, the TGI in [7], in test [8] and in test [9] was > 100 µM in each case.
In the case of `CSc1c(C(=O)Nc2ccc(Cl)cc2)c(N)n(N)c(=O)c1C#N`, the TGI in test [3], in test [4], in test [5], in test [10], in test [6] and in test [7] was > 100 µM throughout. The TGI in test [8] and in test [9] was > 100 µM each time.
`O=C(Nc1ccccc1)c1cc(S(=O)(=O)N2CCNNC2=O)c(S)cc1Cl`: the TGI in test [1], in [4], in test [5], in test [10], in test [6] and in test [7] was > 100 µM each time. Further, the results for the TGI in test [8] and in test [9] were 83.9 µM and > 100 µM, respectively.
As for `COc1cccc(/C=N/[N-]C(N)=O)c1[O-].[Cu+2].[OH3+].c1ccc(-c2ccccn2)nc1`, the TGI in [1] was 98.9 µM; in [2], > 67.7 µM; in [3], > 100 µM; in [4] it was > 100 µM; in test [10], > 100 µM; in test [7], > 100 µM. For the same compound, in test [9], the TGI came to 31.3 µM.
As for `COc1cccc(-c2cc(=O)c3ccccc3[nH]2)c1`, the TGI in [1] is > 100 µM; in test [2], > 100 µM; in test [3] it was > 100 µM; in [4] it was > 48.4 µM; in [10], > 72.7 µM; in test [7], > 100 µM. Also, in [9], the TGI was > 100 µM.
For the compound `CC1(C)CC(=O)C2=C(C1)OC1=C(CC(C)(C)CC1=O)C2c1ccccc1[N+](=O)[O-]` (stereo not drawn), the TGI in [1], in [2], in test [3], in test [4], in test [5] and in test [6] was > 100 µM each time. Further, the TGI in test [7], in test [8] and in test [9] was > 100 µM throughout.
Consider `O=C(OCC(Cl)(Cl)Cl)O[C@@H]1CCCC1(c1ccccc1)c1ccccc1`, for which the TGI in test [1], in [2], in [3], in [4], in [5] and in test [6] was > 100 µM each time. Also, the TGI in [8] and in test [9] was > 100 µM in each case.
As for `CCOC(=O)N(c1ccccc1)N(CC)C(=O)/C(C)=N/Nc1ccc([N+](=O)[O-])cc1`, the TGI in [1] was determined as 40.9 µM; in test [2] it was 30 µM; in test [3] it was 31 µM; in test [4], 29.2 µM; in [10] it was 32.6 µM; in [7] it was 58 µM. Moreover, the TGI in test [9] turned out to be 28.2 µM.
Consider `C[C@@H]1S[C@H](c2c(Cl)cccc2Cl)N2Cc3ccccc3N=C12`, for which the TGI in [1], in test [2], in [4], in test [5], in test [6] and in test [7] was > 100 µM in each case. The TGI in test [8] and in test [9] was > 100 µM throughout.
